Reference: publication PMC9080489, “Synthesis and biological evaluation of 2-aryl-benzimidazole derivatives of dehydroabietic acid as novel tubulin polymerization inhibitors” (RSC Advances, 2018)

Key:
SMMC-7721 cells = test: JC-1 mitochondrial membrane potential assay; format: cell-based, human; conditions: 24 h, control 6.47%
Source text: As the most important organelle, mitochondria play key roles not only on supplying metabolic energy in the form of ATP, but also on regulating the signal transmission during the apoptosis of cancer cells.[46] Besides, the mitochondrial dysfunction can be aroused under high ROS exposure, leading to the collapse of mitochondrial membrane potential (ΔΨm), which is a characteristic phenomenon of early apoptosis.[47] In order to further investigate the apoptosis-inducing effect of target compound 6j, mitochondrial membrane potential changes were detected using the fluorescent probe JC-1. As a lipophilic cationic dye, JC-1 can easily pass through the plasma membrane into cells and accumulates in actively respiring mitochondria. In control cells, JC-1 can form aggregates in mitochondrial matrix and present high red fluorescence. However, in apoptotic cells whose mitochondrial potential has collapsed, JC-1 exists in cytosol as a monomer which emits green fluorescence. SMMC-7721 cells treated with different concentrations (0, 0.1, 0.2, 0.5, 1.0 and 2.0 μM) of compound 6j for 24 h were stained with JC-1 and then subjected to flow cytometry.
The JC-1 mitochondrial membrane potential assay kit (Keygene Biotech., China) was employed to measure mitochondrial depolarization in SMMC-7721 cells. Briefly, cells cultured in six-well plates after indicated treatments were incubated with an equal volume of JC-1 staining solution (5 μg mL^−1) at 37 °C for 20 min and rinsed twice with PBS. Mitochondrial membrane potentials were monitored by determining the relative amounts of dual emissions from mitochondrial JC-1 monomers or aggregates using flow cytometry (Becton-Dickinson FACSCalibur, New York, USA). Mitochondrial depolarization is indicated by an increase in the percentage of cells with low ΔΨm (green fluorescence, lower right quadrant) compared with cells with high ΔΨm (red fluorescence, upper right quadrant).

Porcine brain tubulin = molecular target: T1, Porcine brain tubulin (Sus scrofa, UniProt P02550+P02554); test: In vitro tubulin polymerization inhibition assay (OD340); format: biochemical; conditions: 37 °C, 1 h, versus blank control
T1 construct: purchased Cytoskeleton, Inc. BK004P; host or cells: porcine brain tissue
T1 sequence (P02554 whole entry): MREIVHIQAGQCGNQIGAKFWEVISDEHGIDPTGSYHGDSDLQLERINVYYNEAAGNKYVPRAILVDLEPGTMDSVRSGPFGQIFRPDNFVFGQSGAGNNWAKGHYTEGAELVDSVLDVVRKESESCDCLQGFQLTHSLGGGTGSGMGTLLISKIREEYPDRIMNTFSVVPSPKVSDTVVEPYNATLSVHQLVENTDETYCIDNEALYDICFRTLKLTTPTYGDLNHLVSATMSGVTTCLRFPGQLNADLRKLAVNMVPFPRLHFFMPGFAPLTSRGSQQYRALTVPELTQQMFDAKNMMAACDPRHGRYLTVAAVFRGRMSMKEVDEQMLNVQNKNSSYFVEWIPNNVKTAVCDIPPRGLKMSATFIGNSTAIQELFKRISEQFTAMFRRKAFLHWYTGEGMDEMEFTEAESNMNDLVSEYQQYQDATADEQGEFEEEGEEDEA
T1 sequence (P02550 whole entry): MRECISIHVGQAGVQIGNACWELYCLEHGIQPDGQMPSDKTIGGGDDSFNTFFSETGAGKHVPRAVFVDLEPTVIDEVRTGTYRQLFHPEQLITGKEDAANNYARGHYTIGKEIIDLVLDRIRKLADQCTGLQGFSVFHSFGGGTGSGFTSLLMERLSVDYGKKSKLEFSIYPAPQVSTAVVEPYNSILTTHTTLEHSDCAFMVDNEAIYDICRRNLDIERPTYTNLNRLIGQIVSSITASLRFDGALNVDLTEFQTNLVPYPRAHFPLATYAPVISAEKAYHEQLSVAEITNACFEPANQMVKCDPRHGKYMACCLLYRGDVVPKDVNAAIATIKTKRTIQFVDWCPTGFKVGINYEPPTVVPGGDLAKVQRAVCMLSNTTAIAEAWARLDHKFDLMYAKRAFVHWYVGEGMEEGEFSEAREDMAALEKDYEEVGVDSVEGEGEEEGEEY
Description: The in vitro tubulin polymerization inhibition assay was carried out by using the Tubulin Polymerization Assay Kit (Cytoskeleton, Inc., USA) according to the protocol in the manual. Porcine brain tubulin was incubated with compound 6j at concentrations of 5 and 10 μM. The positive control colchicine and negative control taxol were co-assayed at the concentration of 10 μM, and G-PEM buffer was used as the blank control.
The tubulin polymerization assay was accomplished using a commercial assay kit (cat. #BK004P) purchased from Cytoskeleton, Inc. (Danvers, MA, USA). Tubulin isolated from porcine brain tissue was used in this tubulin polymerization assay kit. Tubulin polymerizations are followed by an increase in optical density at 340 nm (OD340) over a 60 min period at 37 °C due to the light scattered by microtubule polymer. At first, tubulin (4 mg) was disovled in 1 mL of G-PEM buffer containing 80 mM piperazine-N,N′-bis(2-ethanesulfonic acid) sequisodium salt (PIPES, pH 6.9), 2.0 mM MgCl2, 0.5 mM EGTA and 1 mM GTP to prepare tubulin solution. Subsequently, 10 μL of 10 × stock solutions of the tested compounds at different concentrations were added to a prewarmed 96-well plate and incubated at 37 °C for 2 min, then 90 μL of tubulin solution was also added into each well to initiate the reaction. The optical intensity (OD340) of each well was recorded every 60 s for 60 min (Cytation 3 Cell Imaging Multi-Mode Reader, BioTek Instruments, Inc., USA). Colchicine and taxol were co-assayed as the positive control and negative control, respectively. G-PEM buffer was used as the blank control.

[1] = tested on: intracellular microtubule system of SMMC-7721 cells; test: Immunofluorescence staining of microtubule network; format: cell-based, human; conditions: 24 h (Fig. 4 legend)
Description: Since the tubulin polymerization inhibitory effect of compound 6j has been verified, we subsequently performed the immunofluorescent staining assay to observe its effect on the intracellular microtubule system of SMMC-7721 cells.
[…] After being washed with phosphate buffer solution (PBS) and fixed in 4% paraformaldehyde for 15 min, the cells were permeabilized with 0.5% Triton X-100 for 15 min and blocked for 30 min with 10% goat serum. Then, the cells were incubated with mouse anti-tubulin antibody (ZSGB-Bio, China) at 4 °C overnight and incubated with goat anti-mouse IgG/Alexa-Fluor 488 antibody (ZSGB-Bio, China) at room temperature for 1 h. After the nuclei were stained with Hoechst 33258 (Beyotime Biotech., China) in the dark at room temperature for 30 min, the samples were immediately visualized on a Zeiss LSM 570 laser scanning confocal microscope (Carl Zeiss, Germany).

[2] = tested on: human breast cancer cell line (MDA-MB-231); test: MTT cytotoxic assay, MDA-MB-231; format: cell-based; conditions: MDA-MB-231, MTT, 48 h exposure, read-out: IC50 MDA-MB-231
Description: The in vitro antiproliferative activity of DAA derivatives (1–5, 6a–k, 7a–k) were evaluated by MTT assay against human hepatocarcinoma cell line (SMMC-7721), human breast cancer cell line (MDA-MB-231), human cervical carcinoma cell line (HeLa), mouse colon cancer cell line (CT-26) and human normal hepatocyte cell line (QSG-7701). Nocodazole was co-assayed as the positive control and DMEM culture medium containing 0.1% DMSO was used as negative control. The results of the tested compounds expressed as IC50 values (concentration required to inhibit tumor cell proliferation by 50%) were presented in Table 1.
The human hepatocarcinoma cell line (SMMC-7721), human breast cancer cell line (MDA-MB-231), human cervical carcinoma cell line (HeLa), mouse colon cancer cell line (CT-26) and human normal hepatocyte cells (QSG-7701) used in this study were all obtained from Keygene Biotech., China. These cell lines were maintained in DMEM medium supplemented with 10% heat-inactivated fetal bovine serum in a humidified atmosphere of 5% CO2 at 37 °C.
The in vitro cytotoxic activities of the benzimidazole derivatives of dehydroabietic acid were evaluated against tested cell lines via the MTT colorimetric method. Briefly, different tumor cells were grown in DMEM medium supplemented with 10% fetal bovine serum, penicillin (100 U mL^−1), and streptomycin (50 μg mL^−1). Cells were harvested at log phase of growth and seeded in 96-well plates (100 μL per well at a density of 2 × 10^5 cells mL^−1). After 24 h incubation at 37 °C and 5% CO2 to allow cell attachment, cultures were exposed to various concentrations of the isolated compounds for 48 h. Finally, MTT solution (2.5 mg mL^−1 in PBS) was added (40 μL per well). Plates were further incubated for 4 h at 37 °C, and the formazan crystals formed were dissolved by adding 150 μL per well of DMSO. Absorption at 570 nm was measured with an ELISA plate reader. The results were expressed as IC50 values with standard deviations, which was defined as the concentration at which 50% survival of cells was discerned. Nocodazole was co-assayed as positive control.

Which “percentage of cells with low ΔΨm (lower right quadrant)” value (SMMC-7721 cells; 0.1 μM) does the source give for `COC(=O)[C@]1(C)CCC[C@]2(C)c3cc(Br)c4nc(-c5ccc6[nH]ccc6c5)[nH]c4c3CCC12` (some centres unmarked) [Compound 6j, Methyl 2′-(1H-indol-5-yl)-12-bromo-13,14-imidazolyl-deisopropyl-dehydroabietate] here?
Its value is 11.35%.

What about the “percentage of cells with low ΔΨm (lower right quadrant)” value (SMMC-7721 cells; 0.2 μM) of the same compound?
The value was 15.66%.

What about the “percentage of cells with low ΔΨm (lower right quadrant)” value (SMMC-7721 cells; 0.5 μM) of the same compound?
Its value is 20.16%.

And the “percentage of cells with low ΔΨm (lower right quadrant)” value (SMMC-7721 cells; 1.0 μM)?
Its value is 31.30%.

What about the “percentage of cells with low ΔΨm (lower right quadrant)” value (SMMC-7721 cells; 2.0 μM) of the same compound?
Its value is 53.12%.

What about the “effect on tubulin polymerization speed and final absorbance (OD340)” value (Porcine brain tubulin; 10 μM) of the same compound?
Its value is “stronger than colchicine”.

And the “effect on tubulin polymerization speed and final absorbance (OD340)” value (Porcine brain tubulin; 5 and 10 μM)?
Its value is “substantially decreased the polymerization speed and the final absorbance in a dose-dependent manner”.

What about the melting point of the same compound?
The melting point was 179 to 181 °C.

And the “effect on the microtubule network” value ([1]; 0.5 μM)?
Its value is “most microtubule networks disappeared”.

What about the “effect on the microtubule network” value ([1]; 0.1–0.5 μM) of the same compound?
Its value is “the meshy microtubule networks shrank around the nuclei in a dose-dependent manner”.

And the IC50 [2]?
The IC50 was 190 ± 40 nM.
